Values of other authors as cited in patent US9168282B2, “Method for treating neuronal damage and neurological diseases” (priority 2009, dated 2015).

Tests used:
[1] = system: herpes zoster patients; conditions: Famciclovir 500 mg three times per day, 7 days, meta-analysis data (Can Fam Physician 2008)
[2] = system: herpes zoster patients; conditions: 500 mg of Famciclovir three times per day, 7 days, meta-analysis data (Can Fam Physician 2008)

In the case of `CC(=O)OCC(CCn1cnc2cnc(N)nc21)COC(C)=O` [Famciclovir], the “Median of time required for relieving pain” value [1] is listed as 20 days and the “Median of time required for generating scab over the whole skin lesion” value [2] is listed as 5 days.
